Data reported in patent publication US20220024970A1, “COMPOUNDS WITH HIV MATURATION INHIBITORY ACTIVITY” (VIIV HEALTHCARE UK (NO. 4) LIMITED, priority 2018, published 2022).
Structures can show the parent of a compound that is named as a salt.

Columns and labels:
Assay type in all cases: physicochemical
[1] = Solubility in simulated intestinal fluids at controlled ambient room temperature; details: for Solubility in FaSSIF and FeSSIF (in words): mesylate compared to the bis-HCl salt
[2] = Water vapor sorption (DVS) at 25° C.
Procedure: Water vapor sorption experiments were performed using a Surface Measurement System DVS Advantage at 25° C. The Bis-HCl salt of Compound A reversibly absorbed approximately 7% weight per weight of water between 0% and 90% relative humidity at 25° C. […] Upon desorption the conversions were reversible. The Form 1 crystalline mesylate salt of Compound A reversibly absorbed approximately 1.6% weight per weight of water between 0% and 90% relative humidity at 25° C.

[3] = Thermal behaviour during heating (DSC)
Procedure: Differential Scanning calorimetry (DSC) data were acquired on a TA Instruments Q20 DSC. The method parameters were: Heat Program: 30° C. to 300° C. using a 10° C. per minute heating rate, under a nitrogen gas flow.

[4] = Fasted State Simulated Intestinal Fluid (FaSSif) pH 6.5, controlled ambient room temperature
[5] = Fed State Simulated Intestinal Fluid (FeSSif) pH 6.5, controlled ambient room temperature

C=C(C)[C@@H]1CC[C@]2(NCCN3CCS(=O)(=O)CC3)CC[C@]3(C)[C@H](CC[C@@H]4[C@@]5(C)CC=C(C6=CC[C@@](CF)(C(=O)O)CC6)C(C)(C)[C@@H]5CC[C@]43C)[C@@H]12 [Parent Compound A, (1R)-4-[(1R,3aS,5aR,5bR,7aR,11aS,11bR,13aR,13bR)-3a-{[2-(1,1-dioxido-4-thiomorpholinyl)ethyl]amino}-5a,5b,8,8,11a-pentamethyl-1-(1-propen-2-yl)-2,3,3a,4,5,5a,5b,6,7,7a,8,11,11a,11b,12,13,13a,13b-octadecahydro-1H-cyclopenta[a]chrysen-9-yl]-1-(fluoromethyl)-3-cyclohexene-1-carboxylic acid]
Solubility in FaSSIF and FeSSIF (in words) ([1]; listed as parent free base of Compound A): poor solubility
Solubility of Specified Version [1, 4]: Less than 0.001 mg/mL
Solubility of Specified Version [1, 5]: Less than 0.001 mg/mL

C=C(C)[C@@H]1CC[C@]2(NCCN3CCS(=O)(=O)CC3)CC[C@]3(C)[C@H](CC[C@@H]4[C@@]5(C)CC=C(C6=CC[C@@](CF)(C(=O)O)CC6)C(C)(C)[C@@H]5CC[C@]43C)[C@@H]12 [Form 1 of Mesylate salt of Compound A]
Solubility in FaSSIF and FeSSIF (in words) ([1]; listed as Form 1 of the mesylate salt of Compound A): greater solubility
Solubility of Specified Version [1, 4]: 100 µg/mL
Solubility of Specified Version [1, 5]: 600 µg/mL
Solid form change upon moisture sorption ([2]; ambient humidity conditions): no significant form change
Water reversibly absorbed ([2]; between 0% and 90% relative humidity at 25° C.): approximately 1.6 % weight per weight
Hygroscopicity (in words) ([2]; compared to the bis-HCl salt, ambient humidity conditions): lower hygroscopicity
Thermal loss of counter-ion during heating [3]: does not show this behavior
